In patent publication US7297797B2, “Pyrrolines” (Bayer CropScience AG, priority 2002, dated 2007):
Read-outs that look alike come from different tables or passages of the source.

Tests used:
[1] = log P determination by HPLC on reversed-phase column (EEC Directive 79/831 Annex V.A8); format: physicochemical
Description: The log P values given in the preparation examples and tables above are determined in accordance with EEC Directive 79/831 Annex V.A8 by HPLC (High Performance Liquid Chromatography) on a reversed-phase column (C 18). Temperature: 43° C. In the acidic range, determination is carried out at pH 2.3 using the mobile phases 0.1% aqueous phosphoric acid and acetonitrile; linear gradient from 10% acetonitrile to 90% acetonitrile (in the tables marked with a)). In the neutral range, determination is carried out at pH 7.5 using the mobile phases 0.01 molar aqueous phosphate buffer solution and acetonitrile; linear gradient from 10% acetonitrile to 90% acetonitrile (in the tables marked with b)). Calibration is carried out using unbranched alkan-2-ones (of 3 to 16 carbon atoms) with known lopP values (determination of the log P values by the retention times using linear interpolation between two successive alkanones).

[2] = system: caterpillars of the cotton bollworm (Heliothis armigera); test: Heliothis armigera test; format: in vivo; settings: Helicoverpa armigera, 168 h; 100 ppm active compound; soybean shoots (Glycine max) dipped; after 7 d; read-out: Kill rate in % after 7 d
Description: (§1) Heliothis armigera Test • Solvent: 7 parts by weight of dimethylformamide • Emulsifier: 2 parts by weight of alkylaryl polyglycol ether To produce a suitable preparation of active compound, 1 part by weight of active compound is mixed with the stated amounts of solvent and emulsifier, and the concentrate is diluted with emulsifier-containing water to the desired concentration. Soybean shoots (Glycine max) are treated by being dipped into the preparation of active compound of the desired concentration and are populated with caterpillars of the cotton bollworm (Heliothis armigera) while the leaves are still moist. After the desired period of time, the kill in % is determined. 100% means that all caterpillars have been killed; 0% means that none of the caterpillars have been killed. In this test, for example, the following compounds of the preparation examples show good activity: […]

[3] = system: larvae of the mustard beetle (Phaedon cochleariae); test: Phaedon larvae test; format: in vivo; settings: 168 h, 100 ppm active compound, cabbage leaves (Brassica oleracea) dipped, after 7 d, read-out: Kill rate in % after 7 d
Description: as §1, with “Phaedon Larvae Test” for “Heliothis armigera Test”, “concentration. Cabbage leaves (Brassica oleracea)” for “concentration. Soybean shoots (Glycine max)”, “with larvae” for “with caterpillars”, “the mustard beetle (Phaedon cochleariae)” for “the cotton bollworm (Heliothis armigera)”, “all beetle larvae” for “all caterpillars”, “the beetle larvae” for “the caterpillars”

[4] = system: caterpillars of the diamondback moth (Plutella xylostella); test: Plutella test; format: in vivo; settings: 100 ppm active compound, cabbage leaves (Brassica oleracea) dipped
Description: as §1, with “Plutella” for “Heliothis armigera”, “Cabbage leaves (Brassica oleracea)” for “Soybean shoots (Glycine max)”, “diamondback moth (Plutella xylostella)” for “cotton bollworm (Heliothis armigera)”

[5] = system: caterpillars of the army worm (Spodoptera exigua); test: Spodoptera exigua test; format: in vivo; settings: 100 ppm active compound, cabbage leaves (Brassica oleracea) dipped
Description: as §1, with “Spodoptera exigua” for “Heliothis armigera”, “Cabbage leaves (Brassica oleracea)” for “Soybean shoots (Glycine max)”, “army worm (Spodoptera exigua)” for “cotton bollworm (Heliothis armigera)”

[6] = system: caterpillars of the army worm (Spodoptera frugiperda); test: Spodoptera frugiperda test; format: in vivo; settings: 168 h, 100 ppm active compound, cabbage leaves (Brassica oleracea) dipped, after 7 d, read-out: Kill rate in % after 7 d
Description: as §1, with “Spodoptera frugiperda” for “Heliothis armigera”, “Cabbage leaves (Brassica oleracea)” for “Soybean shoots (Glycine max)”, “army worm (Spodoptera frugiperda)” for “cotton bollworm (Heliothis armigera)”

[7] = system: greenhouse red spider mite (Tetranychus urticae); test: Tetranychus test (OP-resistant/dip treatment); format: in vivo; settings: 168 h, 100 ppm active compound, infested bean plants (Phaseolus vulgaris) dipped, OP-resistant, after 7 d, read-out: Kill rate in % after 7 d
Description: Tetranychus Test (OP-Resistant/Dip Treatment)
• Solvent: 7 parts by weight of dimethylformamide • Emulsifier: 2 parts by weight of alkylaryl polyglycol ether
To produce a suitable preparation of active compound, 1 part by weight of active compound is mixed with the stated amounts of solvent and emulsifier, and the concentrate is diluted with emulsifier-containing water to the desired concentration.
Bean plants (Phaseolus vulgaris) which are heavily infested by all stages of the greenhouse red spider mite (Tetranychus urticae) are treated by being dipped into a preparation of active compound of the desired concentration.
After the desired period of time, the activity in % is determined. 100% means that all spider mites have been killed; 0% means that none of the spider mites have been killed.
In this test, for example, the following compounds of the preparation examples show good efficacy: […]

[8] = reversed-phase C18 HPLC column; acidic range, pH 2.3, 0.1% aqueous phosphoric acid/acetonitrile, 43° C.; marked a) in tables, read-out: log P (pH 2.3)
[9] = reversed-phase C18 HPLC column; neutral range, pH 7.5, 0.01 molar aqueous phosphate buffer/acetonitrile, 43° C.; marked b) in tables, read-out: log P (pH 7.5)

CC(C)(C)c1nc(-c2ccc(-c3ccc(C4CCC(c5c(F)cccc5F)=N4)c(F)c3)cc2)no1 (stereo not shown) [Example 6, 5-tert-butyl-3-{4′-[5-(2,6-difluorophenyl)-3,4-dihydro-2H-pyrrol-2-yl]-3′-fluoro-1,1′-biphenyl-4-yl}-1,2,4-oxadiazole]
chromatographic logP [1, 8]: 5.65 | chromatographic logP [1, 9]: 5.97 | pest or weed control at 100 ppm [2]: 100% | pest or weed control at 100 ppm [3]: 100% | Kill rate in % after 7 d [4]: 100% | Kill rate in after 7 d [5]: 100% | pest or weed control at 100 ppm [6]: 100% | pest or weed control at 100 ppm [7]: 98%

Fc1cc(-c2ccc(-c3noc(C(F)(F)F)n3)cc2)ccc1C1CCC(c2c(F)cccc2F)=N1 (stereo not shown) [Example 7]
chromatographic logP [1, 8]: 5.43 | chromatographic logP [1, 9]: 5.72 | pest or weed control at 100 ppm [2]: 100% | pest or weed control at 100 ppm [3]: 100% | Kill rate in % after 7 d [4]: 100% | Kill rate in after 7 d [5]: 100% | pest or weed control at 100 ppm [6]: 100% | pest or weed control at 100 ppm [7]: 98%
